According to patent publication US20230321181A1, “COMPOSITION FOR PREVENTION, IMPROVEMENT OR TREATMENT OF ALLERGIC DISEASE OR ITCHING COMPRISING PENTAPEPTIDE AS ACTIVE INGREDIENT” (CAREGEN CO, LTD., priority 2020, published 2023):

Experiments:
[1] = High temperature stability at 121° C. (HPLC); assay type: physicochemical; conditions: 1000 ppm in sterile distilled water, 15 and 30 minutes
Protocol: The peptide of the present invention was dissolved in sterile distilled water at a concentration of 1000 ppm, heated at 121° C. for 15 minutes and 30 minutes, followed by HPLC analysis.

[2] = tested on: mast cells (rat basophilic leukemia cell line, RBL-2H3); test: Expression of inflammation-related cytokines in mast cells (RT-PCR); assay type: cell-based; conditions: RBL-2H3, DNP-IgE sensitized, DNP-HSA 2 hours, vs control (NC)
Protocol: In order to confirm the effect of inhibiting allergic inflammatory response and improving atopic dermatitis by the pentapeptide of the present invention, the expression pattern of inflammation-related cytokines was confirmed using mast cells (rat basophilic leukemia cell line, RBL-2H3).
Specifically, RBL-2H3 cells were inoculated into a 12-well plate at a density of 5×10^5 cells/well, and then cultured overnight at a 37° C., 5% CO2 incubator. Then, the cells were sensitized by adding DNP-IgE to a complete medium. After 3 hours, it was washed 3 times with DPBS and then PIPES buffer was added thereto. In addition, an immune response was induced by pretreatment with the pentapeptide of the present invention synthesized in Example 1 for 30 minutes and then with DNP-HSA for 2 hours. At this time, 20 μg/mL of ketotifen was used as a positive control.
(§1) After recovering the cells and then isolating RNA, cDNA was synthesized from the isolated RNA using a cDNA synthesis kit (Intron, Korea). A polymerase chain reaction was performed using the synthesized cDNA, PCR premix (Intron, Korea) and IL-3, IL-4, and TNF-α primers, and the amplified PCR product was electrophoresed on an agarose gel to confirm a DNA band. The primer sequences used at this time are as shown in [Table 1].

mouse splenocytes = test: Expression of inflammation-related cytokines in splenocytes (RT-PCR); assay type: cell-based; conditions: TNF-α induced, 30 minutes, vs control (NC)
Protocol: In order to confirm the effect of inhibiting allergic inflammatory response and improving atopic dermatitis by the pentapeptide of the present invention, the expression pattern of inflammation-related cytokines was confirmed using mouse splenocytes.
Specifically, after separating mouse splenocytes, the cells were inoculated into a 24-well plate at a density of 1×10^7 cells/well, and then cultured overnight at a 37° C., 5% CO2 incubator. After changing the medium to a serum-free medium, 4 hours later, the pentapeptide of the present invention and TNF-α were treated and cultured for 30 minutes. At this time, 20 μg/mL of ketotifen was used as a positive control.
as §1, with “synthesized” for “synthesized from the isolated RNA”, “TNF-α, IL-113” for “IL-3, IL-4,”, “COX-2” for “TNF-α”, “2].” for “1].”

[3] = High temperature stability during long-term storage at 45° C. (HPLC); assay type: physicochemical; conditions: 1000 ppm in sterile distilled water, 7 to 75 days
Protocol: The peptide of the present invention consisting of the amino acid sequence of SEQ ID NO: 1 was dissolved in sterile distilled water at a concentration of 1000 ppm, stored at 45° C. for 7 days, 14 days, 28 days, 60 days and 75 days, followed by HPLC analysis.

[4] = tested on: mast cells (rat basophilic leukemia cell line, RBL-2H3); test: Degranulation (β-hexosaminidase release) in DNP-IgE/DNP-HSA stimulated mast cells; assay type: cell-based; conditions: 10 μM or 100 μM, 30 min pretreatment, DNP-IgE sensitized, DNP-HSA 3 hours, vs control (NC)
Protocol: In order to confirm the effect of inhibiting allergic inflammatory response and improving atopic dermatitis by the pentapeptide of the present invention, the degree of degranulation was confirmed using mast cells (rat basophilic leukemia cell line, RBL-2H3).
Specifically, RBL-2H3 cells were inoculated into a 12-well plate at a density of 5×10^5 cells/well, and then cultured overnight at a 37° C., 5% CO2 incubator. Then, the cells were sensitized by adding DNP-IgE to a complete medium. After 3 hours, it was washed 3 times with DPBS and then PIPES buffer was added thereto. In addition, an immune response was induced by pretreatment with the pentapeptide of the present invention synthesized in Example 1 for 30 minutes and then with DNP-HSA for 3 hours. After that, 25 μL of the supernatant was recovered, 25 μL of the substrate solution (5 mM p-nitrophenyl-N-acetyl-β-D-glucosaminide dissolved in 0.2 M sodium citrate buffer, pH 4.5) was added thereto, and then incubated at 37° C. for 90 minutes to react. After the reaction, 200 μL of stop solution (0.1 M Na2CO3/NaHCO3, pH 10.0) was added to each well to stop the enzymatic reaction, and absorbance was measured at 405 nm using a microplate reader. β-hexosamidase secreted from the supernatant was quantified according to Equation 1 below after adding 0.5% Triton X-100 solution to the cells. […]

KFLIK (Pentapeptide) [pentapeptide of the present invention]
high-temperature stability at maximum heating temperature [1]: maintained stability for 30 minutes | expression of IL-3 [2]: significantly reduced | expression of IL-4 [2]: significantly reduced | expression of TNF-α [2]: significantly reduced | expression of COX-2 (mouse splenocytes): significantly reduced | expression of IL-1β (mouse splenocytes): significantly reduced | expression of TNF-α (mouse splenocytes): significantly reduced | high-temperature stability during long-term storage [3]: maintained stability for 75 days | release amount of β-hexosamidase [4]: decreased in a concentration-dependent manner
